Source: EP0104070A2, “Fungicidal N-phenylcarbamates” (priority 1982, dated 1984)

system: drug-resistant strain of Venturia nashicola; experiment: Preventive effect on scab of pear (Experiment 3), drug-resistant strain; conditions: pear seedlings, spray, 200 ppm active ingredient
Experimental: (§1) The disease severity was calculated according to the following equation: [formula]
(§2) The prevention value was calculated according to the following equation: [formula]
(§3) Preventive effect on scab of pear (Venturia nashicola):-
(§4) A plastic pot of 90 ml volume was filled with sandy soil, and seeds of pear (var: Chojuro) were sowed therein. Cultivation was carried out in a greenhouse for 20 days. Onto the resulting seedlings, the test compound formulated in emulsifiable concentrate or wettable powder and diluted with water was sprayed at a rate of 10 ml per pot. […] The resulting plants were placed at 20°C under a condition of high humidity for 3 days and then at 20°C under irradiation with a fluorescent lamp for 20 days.

| Structure (SMILES) | Prevention value when inoculated with drug-resistant strain (%) |
| --- | --- |
| COC(=O)NC(=S)Nc1ccccc1NC(=S)NC(=O)OC [Thiophanate-methyl, 1,2-bis(3-methoxycarbonyl-2-thioureido)benzene] | 0 |

system: drug-sensitive strain of Venturia nashicola; experiment: Preventive effect on scab of pear (Experiment 3), drug-sensitive strain; conditions: pear seedlings, spray, 200 ppm active ingredient
Experimental: as §1, §2, §3, §4

| Structure (SMILES) | Prevention value when inoculated with drug-sensitive strain (%) |
| --- | --- |
| COC(=O)NC(=S)Nc1ccccc1NC(=S)NC(=O)OC [Thiophanate-methyl, 1,2-bis(3-methoxycarbonyl-2-thioureido)benzene] | 100 |

system: drug-resistant strain of Penicillium italicum; experiment: Preventive effect on green mold of orange (Experiment 7), drug-resistant strain; conditions: orange fruits immersed for 1 minute, 200 ppm active ingredient, 24 days

| Structure (SMILES) | Prevention value when inoculated with drug-resistant strain (%) |
| --- | --- |
| COC(=O)NC(=S)Nc1ccccc1NC(=S)NC(=O)OC [Thiophanate-methyl, 1,2-bis(3-methoxycarbonyl-2-thioureido)benzene] | 0 |

system: drug-sensitive strain of Penicillium italicum; experiment: Preventive effect on green mold of orange (Experiment 7), drug-sensitive strain; conditions: orange fruits immersed for 1 minute, 200 ppm active ingredient, 24 days

| Structure (SMILES) | Prevention value when inoculated with drug-sensitive strain (%) |
| --- | --- |
| COC(=O)NC(=S)Nc1ccccc1NC(=S)NC(=O)OC [Thiophanate-methyl, 1,2-bis(3-methoxycarbonyl-2-thioureido)benzene] | 100 |

system: drug-resistant strain of Botrytis cinerea; experiment: Preventive effect on gray mold of cucumber (Experiment 5), drug-resistant strain; conditions: cucumber seedlings, spray, 200 ppm active ingredient, mycelial disks, 20°C for 3 days
Experimental: as §1, §2
(§5) Preventive effect on gray mold of cucumber (Botrytis cinerea):-Plastic pots of 90 ml volume was filled with sandy soil, and seeds of cucumber (var: Sagami-hanjiro) were sowed therein. Cultivation was carried out in a greenhouse for 8 days to obtain cucumber seedlings expanding cotyledons. Onto the resulting seedlings, the test compound formulated in emulsifiable concentrate or wettable powder and diluted with water was sprayed at a rate of 10 ml per pot. […] After the plants were infected by incubating under high humidity at 20°C for 3 days, the rates of disease severity were observed.

| Structure (SMILES) | Prevention value when inoculated with drug-resistant strain (%) |
| --- | --- |
| c1ccc2[nH]c(-c3cscn3)nc2c1 [Thiabendazole, 2-(4-thiazolyl)benzimidazole] | 0 |
| COC(=O)NC(=S)Nc1ccccc1NC(=S)NC(=O)OC [Thiophanate-methyl, 1,2-bis(3-methoxycarbonyl-2-thioureido)benzene] | 0 |

same assay, conditions: cucumber seedlings, spray, 500 ppm active ingredient, mycelial disks, 20°C for 3 days

| Structure (SMILES) | Prevention value when inoculated with drug-resistant strain (%) |
| --- | --- |
| C=CCOC(=O)c1cc(NC(=S)OC)cc(COC)c1OCC [Compound No. 25, (3-methoxymethyl-4-ethoxy-5-allyloxycarbonyl)thiocarbanilic acid O-methyl ester] | 100 |
| CCOc1cc(NC(=S)OC)cc(C=NOC)c1OCC [Compound No. 29, (3,4-diethoxy-5-methoxyiminomethyl)thiocarbanilic acid O-methyl ester] | 100 |

system: drug-sensitive strain of Botrytis cinerea; experiment: Preventive effect on gray mold of cucumber (Experiment 5), drug-sensitive strain; conditions: cucumber seedlings, spray, 200 ppm active ingredient, mycelial disks, 20°C for 3 days
Experimental: as §1, §2, §5

| Structure (SMILES) | Prevention value when inoculated with drug-sensitive strain (%) |
| --- | --- |
| c1ccc2[nH]c(-c3cscn3)nc2c1 [Thiabendazole, 2-(4-thiazolyl)benzimidazole] | 100 |
| COC(=O)NC(=S)Nc1ccccc1NC(=S)NC(=O)OC [Thiophanate-methyl, 1,2-bis(3-methoxycarbonyl-2-thioureido)benzene] | 100 |

same assay, conditions: cucumber seedlings, spray, 500 ppm active ingredient, mycelial disks, 20°C for 3 days

| Structure (SMILES) | Prevention value when inoculated with drug-sensitive strain (%) |
| --- | --- |
| C=CCOC(=O)c1cc(NC(=S)OC)cc(COC)c1OCC [Compound No. 25, (3-methoxymethyl-4-ethoxy-5-allyloxycarbonyl)thiocarbanilic acid O-methyl ester] | 0 |
| CCOc1cc(NC(=S)OC)cc(C=NOC)c1OCC [Compound No. 29, (3,4-diethoxy-5-methoxyiminomethyl)thiocarbanilic acid O-methyl ester] | 0 |

system: drug-resistant strain of Cercospora arachidicola; experiment: not given; conditions: peanut seedlings, spray, 200 ppm active ingredient, 10 days

| Structure (SMILES) | Prevention value when inoculated with drug-resistant strain (%) |
| --- | --- |
| COC(=O)NC(=S)Nc1ccccc1NC(=S)NC(=O)OC [Thiophanate-methyl, 1,2-bis(3-methoxycarbonyl-2-thioureido)benzene] | 0 |

system: drug-sensitive strain of Cercospora arachidicola; experiment: not given; conditions: peanut seedlings, spray, 200 ppm active ingredient, 10 days

| Structure (SMILES) | Prevention value when inoculated with drug-sensitive strain (%) |
| --- | --- |
| COC(=O)NC(=S)Nc1ccccc1NC(=S)NC(=O)OC [Thiophanate-methyl, 1,2-bis(3-methoxycarbonyl-2-thioureido)benzene] | 100 |

system: drug-resistant strain of Mycosphaerella melonis; experiment: not given; conditions: cucumber seedlings, spray, 200 ppm active ingredient, 25°C for 4 days

| Structure (SMILES) | Prevention value when inoculated with drug-resistant strain (%) |
| --- | --- |
| COC(=O)NC(=S)Nc1ccccc1NC(=S)NC(=O)OC [Thiophanate-methyl, 1,2-bis(3-methoxycarbonyl-2-thioureido)benzene] | 0 |

system: drug-sensitive strain of Mycosphaerella melonis; experiment: not given; conditions: cucumber seedlings, spray, 200 ppm active ingredient, 25°C for 4 days

| Structure (SMILES) | Prevention value when inoculated with drug-sensitive strain (%) |
| --- | --- |
| COC(=O)NC(=S)Nc1ccccc1NC(=S)NC(=O)OC [Thiophanate-methyl, 1,2-bis(3-methoxycarbonyl-2-thioureido)benzene] | 100 |

system: drug-resistant strain of Sphaerotheca fuliginea; experiment: not given; conditions: Podosphaera fuliginea, in Cucumis sativus, 240 h, read-out: Prevention value when inoculated with drug-resistant strain (%)

| Structure (SMILES) | pest or weed control at 200 ppm [%] |
| --- | --- |
| COC(=O)Nc1nc2ccccc2[nH]1 [Carbendazim, methyl benz-imidazol-2-ylcarbamate] | 0 |
| CC(C)OC(=O)Nc1ccccc1 [Propham, isopropyl N-phenylcarbamate] | 0 |
| C#CC(C)OC(=O)Nc1cccc(Cl)c1 (stereo not drawn) [Chlorbufam, 1-methyl-2-propynyl N-(3-chlorophenyl)carbamate] | 0 |
| CC(C)OC(=O)Nc1cccc(Cl)c1 [Chlorpropham, isopropyl N-(3-chlorophenyl)carbamate] | 0 |
| COC(=O)NC(=S)Nc1ccccc1NC(=S)NC(=O)OC [Thiophanate-methyl, 1,2-bis(3-methoxycarbonyl-2-thioureido)benzene] | 0 |

system: drug-sensitive strain of Sphaerotheca fuliginea; experiment: not given; conditions: Podosphaera fuliginea, in Cucumis sativus, 240 h, read-out: Prevention value when inoculated with drug-sensitive strain (%)

| Structure (SMILES) | pest or weed control at 200 ppm [%] |
| --- | --- |
| COC(=O)Nc1nc2ccccc2[nH]1 [Carbendazim, methyl benz-imidazol-2-ylcarbamate] | 100 |
| CC(C)OC(=O)Nc1ccccc1 [Propham, isopropyl N-phenylcarbamate] | 0 |
| C#CC(C)OC(=O)Nc1cccc(Cl)c1 (stereo not drawn) [Chlorbufam, 1-methyl-2-propynyl N-(3-chlorophenyl)carbamate] | 0 |
| CC(C)OC(=O)Nc1cccc(Cl)c1 [Chlorpropham, isopropyl N-(3-chlorophenyl)carbamate] | 0 |
| COC(=O)NC(=S)Nc1ccccc1NC(=S)NC(=O)OC [Thiophanate-methyl, 1,2-bis(3-methoxycarbonyl-2-thioureido)benzene] | 100 |

system: drug-resistant strain of Cercospora beticola; experiment: not given; conditions: in Beta vulgaris, 240 h, read-out: Prevention value when inoculated with drug-resistant strain (%)

| Structure (SMILES) | pest or weed control at 200 ppm [%] |
| --- | --- |
| COC(=O)Nc1nc2ccccc2[nH]1 [Carbendazim, methyl benz-imidazol-2-ylcarbamate] | 0 |
| CC(C)OC(=O)Nc1ccccc1 [Propham, isopropyl N-phenylcarbamate] | 0 |
| C#CC(C)OC(=O)Nc1cccc(Cl)c1 (stereo not drawn) [Chlorbufam, 1-methyl-2-propynyl N-(3-chlorophenyl)carbamate] | 0 |
| CC(C)OC(=O)Nc1cccc(Cl)c1 [Chlorpropham, isopropyl N-(3-chlorophenyl)carbamate] | 0 |
| COC(=O)NC(=S)Nc1ccccc1NC(=S)NC(=O)OC [Thiophanate-methyl, 1,2-bis(3-methoxycarbonyl-2-thioureido)benzene] | 0 |

system: drug-sensitive strain of Cercospora beticola; experiment: not given; conditions: in Beta vulgaris, 240 h, read-out: Prevention value when inoculated with drug-sensitive strain (%)

| Structure (SMILES) | pest or weed control at 200 ppm [%] |
| --- | --- |
| COC(=O)Nc1nc2ccccc2[nH]1 [Carbendazim, methyl benz-imidazol-2-ylcarbamate] | 100 |
| CC(C)OC(=O)Nc1ccccc1 [Propham, isopropyl N-phenylcarbamate] | 0 |
| C#CC(C)OC(=O)Nc1cccc(Cl)c1 (stereo not drawn) [Chlorbufam, 1-methyl-2-propynyl N-(3-chlorophenyl)carbamate] | 0 |
| CC(C)OC(=O)Nc1cccc(Cl)c1 [Chlorpropham, isopropyl N-(3-chlorophenyl)carbamate] | 0 |
| COC(=O)NC(=S)Nc1ccccc1NC(=S)NC(=O)OC [Thiophanate-methyl, 1,2-bis(3-methoxycarbonyl-2-thioureido)benzene] | 100 |
